In US9174932B2, “CaSR agonists” (AJINOMOTO CO., INC., priority 2008, dated 2015) one finds EC50 data, which are given here for 35 molecules.

This test addresses T1, human CaSR (Homo sapiens, UniProt P41180, E1011Q).
T1 construct: expressed in transfected cells; host or cells: 293E cells (HEK293 expressing EBNA1, ATCC CRL-10852), transient transfection of hCaSR/pcDNA3.1
T1 sequence (P41180 20-1078 E1011Q): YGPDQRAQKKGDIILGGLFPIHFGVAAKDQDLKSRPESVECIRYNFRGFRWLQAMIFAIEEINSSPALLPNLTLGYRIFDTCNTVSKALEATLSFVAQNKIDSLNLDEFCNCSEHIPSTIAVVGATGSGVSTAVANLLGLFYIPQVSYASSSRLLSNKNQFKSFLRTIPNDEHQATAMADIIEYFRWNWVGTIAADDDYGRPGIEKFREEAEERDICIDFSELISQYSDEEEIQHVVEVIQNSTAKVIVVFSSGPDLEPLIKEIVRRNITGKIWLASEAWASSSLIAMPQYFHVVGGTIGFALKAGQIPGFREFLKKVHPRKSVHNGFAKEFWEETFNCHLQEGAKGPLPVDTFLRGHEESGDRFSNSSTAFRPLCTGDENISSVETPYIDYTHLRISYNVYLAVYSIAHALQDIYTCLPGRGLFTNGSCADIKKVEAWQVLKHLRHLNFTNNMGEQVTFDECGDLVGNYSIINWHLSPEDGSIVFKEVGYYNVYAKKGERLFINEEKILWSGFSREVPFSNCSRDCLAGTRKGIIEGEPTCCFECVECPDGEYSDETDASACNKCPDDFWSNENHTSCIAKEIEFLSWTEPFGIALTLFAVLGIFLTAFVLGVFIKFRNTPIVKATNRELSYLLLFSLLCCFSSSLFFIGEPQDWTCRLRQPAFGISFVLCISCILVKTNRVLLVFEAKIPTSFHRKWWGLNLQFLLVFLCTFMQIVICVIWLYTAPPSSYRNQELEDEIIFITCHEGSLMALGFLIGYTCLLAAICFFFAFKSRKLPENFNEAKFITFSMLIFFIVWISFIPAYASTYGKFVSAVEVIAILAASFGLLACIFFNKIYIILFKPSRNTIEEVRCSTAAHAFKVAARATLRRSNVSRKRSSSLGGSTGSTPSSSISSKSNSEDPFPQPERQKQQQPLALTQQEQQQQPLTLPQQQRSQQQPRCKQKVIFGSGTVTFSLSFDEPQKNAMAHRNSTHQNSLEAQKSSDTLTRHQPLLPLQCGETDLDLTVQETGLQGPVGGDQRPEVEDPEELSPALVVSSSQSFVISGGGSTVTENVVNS
Briefly: Evaluation of CaSR agonistic activity (293E cells transfected with hCaSR, Ca2+ fluorescent indicator, FLIPR). It is filed as cell-based. The note with it: 293E cells expressing human CaSR; concentration giving activation rate 50%. How it is done: 293E cells (HEK293 cell expressing EBNA1, ATCC No. CRL-10852) were cultured in DMEM containing 10% fetal bovine serum (Dulbecco's modified Eagle medium containing […] Glucose, by NACALAI TESQUE, INC.), in the presence of 250 μg/mL of G418. The cells were spread on a petri dish of 10 cm diameter in 1.8×10^6 cells/15 mL. After leaving them in the CO2 incubator (5% CO2, 37° C.) for 24 hours, plasmid expressing human CaSR: hCaSR/pcDNA3.1 was transfected with a transfection reagent: Mirus TransIT 293 (by Takara Bio Inc.). After leaving it in the CO2 incubator for 24 hours, the cells were collected by DMEM containing 10% fetal bovine serum and seeded on poly-D-lysine coat 384 well plate (by Falcon) in 15,000 cells/well. After leaving them in the CO2 incubator for 24 hours, the medium was removed. Then, 50 μL/well of Ca^2+ fluorescent indicator: Calcium 4 Assay Kit (by Molecular Devices) that was dissolved in an assay buffer (146 mM NaCl, 5 mM KCl, 1 mM MgSO4, 1 mg/mL Glucose, 20 mM HEPES (pH 7.2), 1.5 mM CaCl2) was added thereto, and left at 37° C. for 1 hour and at room temperature for 30 minutes to absorb the fluorescent indicator. The 384 well plate was transferred to FLIPR (by Molecular Devices). Then, 12.5 μL/well of a compound that was dissolved in a 0.1% BSA containing assay buffer was added thereto, and change in fluorescence intensity was measured for 3 minutes. Meanwhile, Compound No. 20 was purchased from Bachem.
The difference between the maximum value and the minimum value (RFU(Max−Min)) of the fluorescence intensity before and after adding a compound was automatically calculated by FLIPR. RFU(Max−Min) when adding a compound in maximum concentration was defined as 100%; and RFU(Max−Min) when adding DMSO instead of the compound in the same concentration as that of the compound was defined as 0%.

For orientation: EC50 means the concentration giving half of the maximal effect. Read a low EC50 as an effect from little substance. The molecule `COc1ccc(NC(=O)CC[C@H](N)C(=O)O)cc1S(=O)(=O)O` [Compound No. 2, N^5-(4-methoxy-3-sulfophenyl)-L-glutamine] had a half-maximal effective concentration (EC50) of 2300 nM.

In turn, `COc1ccc(S(=O)(=O)O)cc1NC(=O)CC[C@H](N)C(=O)O` [Compound No. 3, N^5-(2-methoxy-5-sulfophenyl)-L-glutamine] came in with an EC50 of 560 nM.

The molecule `Cc1cc(C)c(S(=O)(=O)O)cc1NC(=O)CC[C@H](N)C(=O)O` [Compound No. 4, N^5-(2,4-dimethyl-5-sulfophenyl)-L-glutamine] came in with an EC50 of 59 nM.

Molecule `Cc1ccc(NC(=O)CC[C@H](N)C(=O)O)cc1S(=O)(=O)O` [Compound No. 5, N^5-(4-methyl-3-sulfophenyl)-L-glutamine] had an EC50 of 130 nM.

Regarding `N[C@@H](CCC(=O)Nc1cc(S(=O)(=O)O)cc([N+](=O)[O-])c1O)C(=O)O` [Compound No. 6, N^5-(2-hydroxy-3-nitro-5-sulfophenyl)-L-glutamine], the EC50 stood at 2700 nM.

For the molecule `N[C@@H](CCC(=O)Nc1cc(S(=O)(=O)O)ccc1O)C(=O)O` [Compound No. 8, N^5-(2-hydroxy-5-sulfophenyl)-L-glutamine], the EC50 turned out to be 100 nM.

For the molecule `N[C@@H](CCC(=O)Nc1ccc(Cl)c(S(=O)(=O)O)c1)C(=O)O` [Compound No. 9, N^5-(4-chloro-3-sulfophenyl)-L-glutamine], the EC50 turned out to be 270 nM.

`N[C@@H](CCC(=O)Nc1cccc(S(=O)(=O)O)c1O)C(=O)O` [Compound No. 10, N^5-(2-hydroxy-3-sulfophenyl)-L-glutamine]: a half-maximal response (EC50) required 17 nM.

`N[C@@H](CCC(=O)Nc1ccc(O)c(S(=O)(=O)O)c1)C(=O)O` [Compound No. 11, N^5-(4-hydroxy-3-sulfophenyl)-L-glutamine] returned an EC50 of 86 nM.

Molecule `CN(C(=O)CC[C@H](N)C(=O)O)c1cccc(S(=O)(=O)O)c1` [Compound No. 12, N^5-methyl-N^5-(3-sulfophenyl)-L-glutamine] had an EC50 of 200 nM.

Turning to `N[C@@H](COC(=O)Nc1cccc(S(=O)(=O)O)c1)C(=O)O` [Compound No. 13, O-{[(3-sulfophenyl)amino]carbonyl}-L-serine], the concentration for a half-maximal effect (EC50) came out at 72 nM.

`N[C@@H](CCC(=O)Nc1cccc(C(=O)O)c1)C(=O)O` [Compound No. 14, 3-(L-γ-glutamylamino)benzoic acid] registered an EC50 of 2000 nM.

The molecule `N[C@@H](CCC(=O)Nc1cccc(C(=O)O)c1O)C(=O)O` [Compound No. 15, 3-(L-γ-glutamylamino)-2-hydroxybenzoic acid] gave an EC50 of 34 nM.

In turn, `N[C@@H](CCC(=O)Nc1cc(Br)cc(C(=O)O)c1)C(=O)O` [Compound No. 16, 3-bromo-5-(L-γ-glutamylamino)benzoic acid] registered a 50% effective concentration (EC50) of 48 nM.

As to `COP(=O)(O)c1cccc(NC(=O)CC[C@H](N)C(=O)O)c1` [Compound No. 17, N^5-{3-[hydroxyl(methoxy)phosphoryl]phenyl}-L-glutamine], the response was half-maximal at 2000 nM (EC50).

`N[C@@H](CCC(=O)Nc1cccc(P(=O)(O)O)c1)C(=O)O` [Compound No. 18, N^5-(3-phosphonophenyl)-L-glutamine] displayed an EC50 of 530 nM.

`N[C@@H](CCC(=O)Nc1cccc([N+](=O)[O-])c1)C(=O)O` [Compound No. 19, N^5-(3-nitrophenyl)-L-glutamine] showed an EC50 of 400 nM.

The molecule `N[C@@H](CCC(=O)Nc1ccccc1)C(=O)O` [Compound No. 20, N-γ-glutamyl-aniline] gave an EC50 of 940 nM.

`Cc1c(Cl)cc(NC(=O)CC[C@H](N)C(=O)O)cc1S(=O)(=O)O` [Compound No. 21, N^5-(3-chloro-4-methyl-5-sulfophenyl)-L-glutamine] gave a concentration for a half-maximal effect (EC50) of 5.7 nM.

`Cc1c(Cl)cc(S(=O)(=O)O)cc1NC(=O)CC[C@H](N)C(=O)O` [Compound No. 22, N^5-(3-chloro-2-methyl-5-sulfophenyl)-L-glutamine] returned an EC50 of 1.4 nM.

`N[C@@H](CCC(=O)Nc1cc([N+](=O)[O-])cc(S(=O)(=O)O)c1O)C(=O)O` [Compound No. 23, N^5-(2-hydroxy-5-nitro-3-sulfophenyl)-L-glutamine]: the EC50 was found to be 890 nM.

In the case of `N[C@@H](CCC(=O)Nc1cc(Cl)cc(C(=O)O)c1Cl)C(=O)O` [Compound No. 24, 2,5-dichloro-3-(L-γ-glutamylamino)benzoic acid], the concentration giving a half-maximal response (EC50) came out at 22 nM.

Take `N[C@@H](CCC(=O)Nc1cccc(C(=O)O)c1Cl)C(=O)O` [Compound No. 25, 2-chloro-3-(L-γ-glutamylamino)benzoic acid]: the midpoint of the response, the EC50, lay at 970 nM.

For `N[C@@H](CCC(=O)Nc1cc(C(=O)O)ccc1Cl)C(=O)O` [Compound No. 26, 4-chloro-3-(L-γ-glutamylamino)benzoic acid], the midpoint of the response, the EC50, lay at 160 nM.

Regarding `COc1c(NC(=O)CC[C@H](N)C(=O)O)cccc1C(=O)O` [Compound No. 27, 2-methoxy-3-(L-γ-glutamylamino)benzoic acid], the EC50 was found to be 150 nM.

Molecule `N[C@@H](CCC(=O)Nc1ccc(O)c(C(=O)O)c1)C(=O)O` [Compound No. 28, 6-hydroxy-3-(L-γ-glutamylamino)benzoic acid] registered an EC50 of 330 nM.

Turning to `Cc1ccc(C(=O)O)cc1NC(=O)CC[C@H](N)C(=O)O` [Compound No. 29, 4-methyl-3-(L-γ-glutamylamino)benzoic acid], a half-maximal effect (EC50) was put at 530 nM.

`N[C@@H](CCC(=O)Nc1cc(O)cc(C(=O)O)c1)C(=O)O` [Compound No. 30, 5-hydroxy-3-(L-γ-glutamylamino)benzoic acid]: the midpoint of the response, the EC50, lay at 2900 nM.

For `Cc1c(NC(=O)CC[C@H](N)C(=O)O)cccc1C(=O)O` [Compound No. 31, 3-(L-γ-glutamylamino)-2-methyl-benzoic acid], the EC50 came out at 3700 nM.

In turn, `N[C@@H](CCC(=O)Nc1cc(Cl)cc(C(=O)O)c1)C(=O)O` [Compound No. 32, 5-chloro-3-(L-γ-glutamylamino)benzoic acid] came in with an EC50 of 8.8 nM.

The molecule `Cc1c(Cl)cc(NC(=O)OC[C@H](N)C(=O)O)cc1S(=O)(=O)O` [Compound No. 33, O-{[(3-chloro-4-methyll-5-sulfophenyl)amino]carbonyl}-L-serine] returned an EC50 of 2.1 nM.

With `N[C@@H](COC(=O)Nc1cc(Cl)cc(S(=O)(=O)O)c1O)C(=O)O` [Compound No. 34, sodium 3-{[(2S)-2-amino-2-carboxyethoxycarbonyl]amino}-5-chloro-2-hydroxybenzenesulfonate], a half-maximal effect (EC50) was put at 1.9 nM.

As to `Cc1c(Cl)cc(S(=O)(=O)O)cc1NC(=O)OC[C@H](N)C(=O)O` [Compound No. 35, O-{[(3-chloro-2-methyl-5-sulfophenyl)amino]carbonyl}-L-serine], the concentration giving a half-maximal response (EC50) amounted to 3.7 nM.

Take `COc1c(NC(=O)OC[C@H](N)C(=O)O)cc(Cl)cc1S(=O)(=O)O` [Compound No. 36, O-{[(5-chloro-2-methoxy-3-sulfophenyl)amino]carbonyl}-L-serine]: it took 3500 nM to reach a half-maximal effect (EC50).

Turning to `N[C@@H](CCC(=O)Nc1cc(S(=O)(=O)O)ccc1Cl)C(=O)O` [Compound No. 37, N^5-(2-chloro-5-sulfophenyl)-L-glutamine], the response was half-maximal at 2.9 nM (EC50).
